A melting point compilation (Tetko et al.)

Structure (SMILES)	melting point [°C]
O=C(O)c1ccc2c(c1)C(=O)N(C1CCCCC1)C2=O	188 to 201
CC(C)(C)c1ccc2oc(N)nc2c1	146 to 148
O=C(CCl)NCc1ccco1	81 to 83
Cc1[nH]n(C)c(=N)c1C	109 to 111
Nc1cccc(CN2CCN(c3ccccn3)CC2)c1	168 to 170
CC1CNc2cccnc2N1 (stereo not drawn)	110 to 112
Nc1ccccc1N1CC(C(F)(F)F)OC1=O (stereo not drawn)	74 to 76
NS(=O)(=O)c1c[nH]c(=O)[nH]c1=O	299 to 301
O=c1cc(CCl)c2ccc(O)cc2o1	135 to 137
O=S(=O)(NCc1ccccc1)c1cccs1	145 to 150
CS(=O)(=O)c1ccc(F)c(C(=O)O)c1	190 to 192
O=C1NC(=O)C(c2cccc(Br)c2)N1 (stereo not drawn)	185 to 187
Cn1c(=O)oc2c(C(=O)O)cccc21	309 to 311
CN1CCC(Nc2ccccc2N)CC1	86 to 88
Cc1sc(N=CN(C)C)c(C#N)c1C	117 to 119
CN1C(=O)CCC(C(=O)O)C1c1cccs1 (stereo not drawn)	154 to 156
CC1CCN(Cc2ccccc2CN)CC1	161 to 163
CC1CC(C(=O)O)CCC1=O (stereo not drawn)	69 to 71
Cn1cccc1C=CC(=O)O	153 to 155
Oc1ncnc2c(F)cc(Br)cc12	299 to 301
Cc1cccc(C2(C(F)(F)F)CCCN2)c1C (stereo not drawn)	45 to 47
O=C(O)c1cc(S(=O)(=O)Cl)cc(F)c1Cl	149 to 151
CN(CC(=O)O)C(=O)C1CC1	112 to 114
NC(=NO)c1ccc(O)cc1	152 to 156
Cc1nn(Cc2ccc(Cl)cc2)c(O)c1C=O	179 to 181
O=C1CCOc2c(Cl)cccc21	62 to 64

Structure (SMILES)	melting point [°C]
O=C(O)CS(=O)(=O)Cc1ccc(Br)cc1	156 to 158
COc1ccc(C(O)C2CC2)c(C)c1 (stereo not drawn)	39 to 41
Nc1ccc(S(=O)(=O)CC2CCOC2)cc1 (stereo not drawn)	118 to 120
Nc1ccc(Oc2ccccc2)cn1	67 to 69
O=[N+]([O-])c1ccc(CCS(=O)(=O)Cl)cc1	89 to 91
NC(=S)NCC(F)(F)F	154 to 156
O=C(CCl)Nc1cccc(S(=O)(=O)N2CCOCC2)c1	157 to 159
COc1ccc(Cn2[nH]cc(Br)c2=N)cc1	92 to 94
NCC(O)c1cccc(OCc2ccccc2)c1 (stereo not drawn)	107 to 109
NNC(=O)C1CCCC1	112 to 114
NC1(C(=O)O)CCCCC1	300 to 302
Cc1cc(-c2nnco2)ccc1[N+](=O)[O-]	119 to 121
Cc1oc(C(=O)O)cc1S(=O)(=O)N1CCCC1	219 to 221
O=Cc1cnn(-c2ccc(F)cc2)c1	120 to 122
O=C1OCCN1c1ccc(Cl)c([N+](=O)[O-])c1	163 to 165
C=CCc1cc([N+](=O)[O-])ccc1O	68 to 70
CC(C)Oc1cccc(C(O)CN)c1 (stereo not drawn)	52 to 54
NS(=O)(=O)c1ccc2c(c1)OCCO2	197 to 199
CC(Cl)C(=O)NC1CCCCC1 (stereo not drawn)	98 to 100
O=C(O)CCCS(=O)(=O)N1CCCC1	130 to 132
CC(C)(C)c1ccc(-c2cc(N)on2)cc1	148 to 150
CC(Br)C(=O)c1ccc2c(c1)CCC(=O)N2 (stereo not drawn)	193 to 195
Sc1nnc(N2CCOCC2)n1CC1CCCO1 (stereo not drawn)	186 to 188
CC1Cc2cc(C(=O)O)ccc2N1S(C)(=O)=O (stereo not drawn)	194 to 196
O=c1cnc2ccccc2n1CCS(=O)(=O)F	145 to 147
Cc1nn(C)c(C)c1C(CC(=O)O)C(F)(F)F (stereo not drawn)	130 to 132

Structure (SMILES)	melting point [°C]
O=Cc1ccc(N2CCNCC2)s1	59 to 63
CCn1ccnc1S	78 to 80
O=S1(=O)CCC2(CC1)CO2	168 to 170
Cn1cc(C=O)c(-c2ccc3c(c2)OCCCO3)n1	99 to 101
Cc1nn(C)c(-n2cncn2)c1N	96 to 98
CN(C)c1c(N)n(C)c(=O)[nH]c1=O	161 to 163
CC(C)(C(=O)O)c1ccc2ccccc2c1	146 to 148
O=C(CCl)n1nc2ccccn2c1=O	164 to 166
Clc1ccc(Br)cc1CBr	71 to 73
O=C(O)c1cn(Cc2cccc(F)c2)nn1	189 to 191
Oc1ccc(-c2nnco2)cc1	210 to 212
COc1ccc(NS(=O)(=O)c2ccc(N)cc2)c(OC)c1	119 to 121
CCC(=O)NC(C)C(=O)O (stereo not drawn)	89 to 91
CC(C)(C)OC(=O)N1CCc2[nH]c(=O)c(S(C)(=O)=O)cc2C1	229 to 231
O=C(O)c1nnn(-c2ccccc2)c1C(F)(F)F	132 to 134
Cn1c(S)nnc1-c1ccc(F)cc1	111 to 115
Cc1c[nH]c(=O)n1-c1ccccc1N	194 to 196
Fc1ccc(CNc2nc3ccccc3s2)cc1	155 to 157
CN(c1ccc(C(=O)O)cc1)C1CCCCC1	148 to 150
CC1CN(c2ccccc2N)CC(C)O1 (stereo not drawn)	83 to 85
Cc1ccc(C(=O)O)cc1S(=O)(=O)N1CCCCC1	179 to 181
Nc1c(O)c(Cl)cc(Cl)c1Cl	119 to 121
O=C(O)c1cccc(C(O)C(=O)O)c1 (stereo not drawn)	189 to 191
O=C(O)c1ccc(S(=O)(=O)N2CCOCC2)cc1	287 to 289
O=c1[nH]nc(-c2ccc(Cl)c(Cl)c2)c2ccccc12	274 to 276
NC(C(=O)O)c1cccc(C(F)(F)F)c1 (stereo not drawn)	192 to 194

Structure (SMILES)	melting point [°C]
O=S1(=O)CCC(Cl)CC1	129 to 131
Nc1cc([N+](=O)[O-])ccc1C(=O)O	257 to 259
O=C(NCc1ccccc1)c1ccc(-n2ccnc2S)cc1	216 to 218
CON(C)S(=O)(=O)c1cc(C(=O)O)ccc1Cl	228 to 230
COc1cc2c(cc1OC)CN(Cc1ccccc1N)CC2	149 to 151
CC1(C)NC(=O)C1(C)C	95 to 97
O=C(O)c1ccccc1S(=O)(=O)C(F)(F)F	107 to 109
O=S(=O)(CCCl)c1ccc(Br)cc1	110 to 112
CC(O)c1nc(-c2ccccc2)cs1 (stereo not drawn)	75 to 77
CC(C)NS(=O)(=O)Cc1ccc(CN)cc1	148 to 150
FC(F)(F)CNc1ccncc1	157 to 159
Cc1cn2nc(N)c3ccccc3c2n1	216 to 218
CC(NC(=O)OC(C)(C)C)C(O)Cc1ccccc1 (stereo not drawn)	116 to 118
O=Cc1sc(Cl)nc1Cl	38 to 42
Cc1cc(Cl)c2cc(F)c(F)c(F)c2n1	73 to 75
O=C(CCl)NCCc1ccsc1	75 to 77
CC1(CO)CCN(Cc2ccccc2)CC1	59 to 61
N#CC(C(=O)CCl)=C1Nc2ccccc2N1	285 to 287
O=[N+]([O-])c1ccc(-c2noc(Cl)n2)cc1	118 to 120
OC1COc2ccc(Br)cc21 (stereo not drawn)	79 to 81
CN1CCCC1C(=O)O (stereo not drawn)	111 to 113
N#CCc1cc(F)cc2c1OCOC2	75 to 77
Nc1ccc2oc(=O)[nH]c2c1	204 to 206

Further lines, results first:

melting point [°C]	Structure (SMILES)
129 to 131	COc1ccc(C(N)=NO)c(OC)c1
159 to 161	Nc1nnc(SCc2ccccc2)s1
119 to 121	Nc1cccc(C(=O)NCc2ccccn2)c1
52 to 54	COc1ccc(C(C)C(=O)O)cc1 (stereo not drawn)
125 to 127	Nc1ccccc1C(=O)NCc1ccccc1
232 to 234	Cc1nnc(S)n1CC(N)=O
154 to 156	O=C(O)c1csc(Cc2ccccc2F)n1
129 to 131	CC(=O)NCc1ccc(C(C)=O)s1
59 to 61	CN(C)c1ccc(CNC(=O)CCl)cc1
199 to 201	CCc1n[nH]c(C(=O)O)c1Cl
157 to 159	CN(C)c1ccnc(N)n1
59 to 61	COC(=O)c1scnc1C1CC1
263 to 265	Cn1ccnc1-c1nnc(N)s1
237 to 239	NC(=O)c1ccc(-n2cccc2)cc1
131 to 133	CCOC(=O)COc1ccc(S(C)(=O)=O)cc1[N+](=O)[O-]
147 to 149	CCOc1oc(-c2ccccc2)nc1C(=O)O
172 to 174	Nc1ncc(Br)nc1C(=O)O
89 to 91	COCCOc1ccc(Cl)c(C(=O)O)n1
109 to 111	CCOC(=O)c1cccnc1SCC(=O)O
135 to 137	COC(=O)CCc1nnc(N)s1
252 to 254	COC(=O)c1ccc2c(c1)NCC(=O)N2
219 to 221	Cc1nc(C)c(C(=O)O)o1
284 to 286	COc1ccc(-c2cc(C(=O)O)c3sc(N4CCCCC4)nc3n2)cc1OC
113 to 115	COc1ccccc1C(N)=S

melting point [°C]	Structure (SMILES)
159 to 161	NC(=O)NC(CC(=O)O)c1cccc(Br)c1 (stereo not drawn)
123 to 125	CCSCc1ccc(C(=O)O)cc1
162 to 164	O=C(O)c1nc(-c2cccs2)n(-c2cccc(F)c2)n1
226 to 228	Cn1c(=O)n(CCC(=O)O)c2ccccc21
24 to 26	CCC(=O)NN
189 to 193	Nc1nc(-c2cccnc2)cs1
122 to 124	O=C(O)CCC(=O)c1ccc2c(c1)CCCC2
209 to 211	O=C(O)c1ccc(-n2cc(Br)cn2)nn1
259 to 261	Cc1ccc(-n2ccnc2)c(C(=O)O)c1
159 to 161	COC(=O)c1c[nH]c2cccc(F)c12
147 to 149	CC(C)c1nnc(C(C)C)[nH]1
122 to 124	Cc1sc(N)nc1-c1ccc(F)cc1
180 to 182	COCCCn1c(S)nc2ccccc2c1=O
118 to 120	Nc1ccc(CC(=O)N2CCSCC2)cc1
179 to 181	O=C(O)Cc1csc(N2CCNC2=O)n1
45 to 47	CNS(=O)(=O)c1ccc(Cl)s1
197 to 199	O=C(O)CCc1nnc(-c2cccnc2)o1
129 to 131	OCCN1CCN(c2ccc(CO)nn2)CC1
51 to 53	CCOC(=O)COc1ccccc1O
190 to 192	NC(=O)NC(CC(=O)O)c1cccs1 (stereo not drawn)
108 to 110	NC(=O)c1cccc(C=O)c1
147 to 149	CCN1N=C(C(=O)O)CCC1=O
139 to 141	Cc1c(C(=O)NN)oc2ccccc12
